Results on 54 molecules are retold here after PubChem BioAssay AID1259246 (Broad Institute, 2017).

Each structure is given as a SMILES string. Where “and” joins values, the source holds several entries; their conditions need not be identical. Identical values can stand only once. Records with an inconclusive call do not appear. Calls of active or inactive are those of the source.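 The calls were made as follows: active = valid dose-response fit whose half-maximal growth-inhibiting concentration is at or below a set limit above the top tested dose; inconclusive = flat fit with effect between 30 and 70%, or poor fit; inactive = half-maximal concentration above a set limit.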

The first test can be described thus: antibacterial activity against Clostridioides difficile – 10-point retest, dose response (AID 1259246). The note with it: Clostridioides difficile clinical isolate growth, OD600, 24 h; at 60 µM (top of the series).
As for `COc1ccccc1CNC(=O)C[C@H]1C[C@H]2c3cc(NC(=O)NC4CCCC4)ccc3O[C@H]2[C@H](CO)O1`, the activity change, negative = inhibition is -5.15% (inactive).

In the case of `O=C(C[C@@H]1C[C@H]2c3cc(NC(=O)Nc4ccc(F)cc4)ccc3O[C@H]2[C@H](CO)O1)NC1CCCCC1`, the activity change, negative = inhibition was 6.83% (inactive).

For the molecule `C[C@H]1CN([C@@H](C)CO)C(=O)c2cccc(NC(=O)Nc3ccc(C(F)(F)F)cc3)c2O[C@H]1CN(C)S(=O)(=O)c1ccc(Cl)cc1`, the activity change, negative = inhibition was 28.2% (inactive).

For `C[C@@H]1CN([C@@H](C)CO)S(=O)(=O)c2ccc(/C=C/c3ccccc3)cc2O[C@H]1CN(C)Cc1ccccc1`, the activity change, negative = inhibition was 2.6% (inactive).

Turning to `CN(C)CC(=O)N1[C@@H](C#N)[C@H](c2ccc(C#CC3CCCCC3)cc2)[C@@H]1CO`, the activity change, negative = inhibition was 0.345% (inactive).

For `COc1ccccc1C#Cc1ccc([C@H]2[C@@H](CO)N(C(=O)C3CCCCC3)[C@H]2C#N)cc1`, the activity change, negative = inhibition was 2.35% (inactive).

For `COc1ccc(CNC(=O)C[C@H]2C[C@@H]3c4cc(NC(=O)C5CCC5)ccc4O[C@@H]3[C@@H](CO)O2)cc1`, the activity change, negative = inhibition was -1.06% (inactive).

Still in this test, the particulars now being: Clostridioides difficile clinical isolate growth, OD600, 24 h; at 68 µM (top of the series).
Consider `O=C(C[C@H]1C[C@@H]2c3cc(NS(=O)(=O)c4ccc(F)cc4)ccc3O[C@@H]2[C@@H](CO)O1)NCc1ccc(Cl)cc1`, for which the activity change, negative = inhibition is 8.4% (inactive).

The test is the same for the next values; noted with them: Clostridioides difficile clinical isolate growth, OD600, 24 h; at 120 µM (top of the series).
In the case of `CC(C)CC#Cc1ccc2c(c1)O[C@H](CN(C)Cc1cccnc1)[C@@H](C)CN([C@@H](C)CO)S2(=O)=O`, the activity change, negative = inhibition is 20.5% (inactive).

Regarding `COc1ccc(-c2ccc([C@H]3[C@H](C#N)N[C@H]3CO)cc2)cc1`, the activity change, negative = inhibition was -2.73% (inactive).

For `C[C@H](CO)N1C[C@H](C)[C@H](CN(C)Cc2ccc(-c3ccccc3)cc2)Oc2c(NC(=O)Nc3ccc(C(F)(F)F)cc3)cccc2C1=O`, the activity change, negative = inhibition is 16.3% (inactive).

With `Cc1ccc(S(=O)(=O)N2C[C@@H](O)COC[C@H]3O[C@H](CC(=O)NCc4ccc(Cl)c(Cl)c4)CC[C@@H]32)cc1`, the activity change, negative = inhibition is 22.9% (inactive) and 25.2% (inactive) and 97.3% (inactive).

For `CO[C@H]1CN(C)C(=O)c2ccc(NC(=O)c3ccc(-c4ccccc4)cc3)cc2OC[C@H](C)NC[C@H]1C`, the activity change, negative = inhibition is 4.8% (inactive).

On to `C[C@H]1CN([C@@H](C)CO)C(=O)c2cccc(NC(=O)Nc3ccc(C(F)(F)F)cc3)c2O[C@@H]1CN(C)Cc1ccc(-c2ccccc2)cc1`, for which the activity change, negative = inhibition is 31.9% (inactive).

Regarding `C[C@@H]1CN([C@@H](C)CO)S(=O)(=O)c2ccc(C#CC3CCCC3)cc2O[C@H]1CN(C)Cc1cccnc1`, the activity change, negative = inhibition was 23.5% (inactive).

Consider `O=C(C[C@@H]1C[C@@H]2c3cc(NC(=O)Nc4ccc(F)cc4)ccc3O[C@@H]2[C@H](CO)O1)NC1CCCCC1`, for which the activity change, negative = inhibition is -4.54% (inactive).

For the molecule `COc1ccc(S(=O)(=O)N(C)C[C@H]2Oc3c(NC(=O)Nc4ccc5c(c4)OCO5)cccc3C(=O)N([C@@H](C)CO)C[C@H]2C)cc1`, the activity change, negative = inhibition was 11.1% (inactive).

For `Cc1ccc(S(=O)(=O)N[C@@H]2CC[C@@H](CCNS(=O)(=O)Cc3ccccc3)O[C@@H]2CO)cc1`, the activity change, negative = inhibition was -1.17% (inactive).

In the case of `CC(C)C#Cc1ccc2c(c1)O[C@H](CN(C)CC1CCOCC1)[C@H](C)CN([C@H](C)CO)S2(=O)=O`, the activity change, negative = inhibition was 10.2% (inactive).

Turning to `CO[C@@H]1CN(C)C(=O)c2ccc(NC(=O)c3nc4ccccc4s3)cc2OC[C@@H](C)N(Cc2cccnc2)C[C@H]1C`, the activity change, negative = inhibition is 14.9% (inactive).

Consider `O=C(C[C@H]1C[C@@H]2c3cc(NS(=O)(=O)c4ccc(F)cc4)ccc3O[C@@H]2[C@H](CO)O1)NCc1ccc(-c2ccccc2)cc1`, for which the activity change, negative = inhibition was 25.5% (inactive).

For the molecule `O=C(C[C@H]1C[C@@H]2c3cc(NC(=O)NC4CCCC4)ccc3O[C@@H]2[C@@H](CO)O1)NCc1ccc2c(c1)OCO2`, the activity change, negative = inhibition was -10.4% (inactive).

As to `C[C@H]1CN([C@@H](C)CO)C(=O)c2cccc(NC(=O)Nc3ccc(C(F)(F)F)cc3)c2O[C@H]1CN(C)S(=O)(=O)c1ccc(Cl)cc1`, the activity change, negative = inhibition was 51.5% (inactive).

With `C/C=C/c1ccc2c(c1)O[C@H](CN(C)Cc1ccc(F)cc1)[C@H](C)CN([C@@H](C)CO)S2(=O)=O`, the activity change, negative = inhibition was 7.75% (inactive).

Turning to `C[C@@H]1CN([C@H](C)CO)C(=O)c2cccc(NC(=O)Nc3ccc(C(F)(F)F)cc3)c2O[C@H]1CN(C)C(=O)NC1CCCCC1`, the activity change, negative = inhibition was 28.2% (inactive).

For `C[C@@H]1CCCCO[C@@H](CN(C)S(=O)(=O)c2ccc(F)cc2)[C@H](C)CN([C@H](C)CO)C(=O)c2cc(NC(=O)Nc3cccc4ccccc34)ccc2O1`, the activity change, negative = inhibition was 34.2% (inactive).

In the case of `Cc1ccc(-c2ccc3c(c2)O[C@H](CN(C)Cc2cccnc2)[C@@H](C)CN([C@@H](C)CO)S3(=O)=O)cc1`, the activity change, negative = inhibition was 25.7% (inactive).

In the case of `C[C@@H]1CN([C@H](C)CO)S(=O)(=O)c2ccc(C#CC3CCCCC3)cc2O[C@H]1CN(C)Cc1cccnc1`, the activity change, negative = inhibition is 18.8% (inactive).

Consider `O=S(=O)(NCC[C@H]1CC[C@H](NS(=O)(=O)c2ccccc2Cl)[C@H](CO)O1)c1ccc(Cl)cc1`, for which the activity change, negative = inhibition was -7.26% (inactive).

Regarding `C[C@H](CO)N1C[C@H](C)[C@H](CN(C)Cc2ccc(Oc3ccccc3)cc2)Oc2ccc(NC(=O)C3CC3)cc2CC1=O`, the activity change, negative = inhibition was 12.9% (inactive).

Regarding `C[C@@H]1CN([C@H](C)CO)S(=O)(=O)c2ccc(C3=CCCCC3)cc2O[C@H]1CN(C)Cc1cccnc1`, the activity change, negative = inhibition was 19% (inactive).

As to `CO[C@@H]1CN(C)C(=O)c2cc(NC(=O)c3nc4ccccc4s3)ccc2OC[C@H](C)N(Cc2ccncc2)C[C@@H]1C`, the activity change, negative = inhibition is 13.2% (inactive).

Consider `COc1ccc(-c2ccc([C@H]3[C@H](C#N)N(C(=O)NC4CCCCC4)[C@H]3CO)cc2)cc1`, for which the activity change, negative = inhibition is 7.21% (inactive).

Take `C[C@@H]1CN([C@@H](C)CO)C(=O)c2ccccc2-c2ccccc2CO[C@@H]1CN(C)S(=O)(=O)c1ccc([N+](=O)[O-])cc1`: the activity change, negative = inhibition was 35.2% (inactive).

With `Cc1ccc(S(=O)(=O)N[C@H]2CC[C@H](CCNS(=O)(=O)Cc3ccccc3)O[C@H]2CO)cc1`, the activity change, negative = inhibition is -4.09% (inactive).

Consider `C[C@H](CO)N1C[C@H](C)[C@@H](CN(C)Cc2ccc(-c3ccccc3)cc2)Oc2c(NC(=O)Nc3ccc(C(F)(F)F)cc3)cccc2C1=O`, for which the activity change, negative = inhibition was 12.2% (inactive).

`C[C@@H]1CN([C@@H](C)CO)C(=O)c2cccc(NC(=O)Nc3ccc(C(F)(F)F)cc3)c2O[C@@H]1CN(C)S(=O)(=O)c1ccc(Cl)cc1`: the activity change, negative = inhibition is 22.7% (inactive).

In the case of `Cc1ccc(-c2ccc3c(c2)O[C@@H](CN(C)Cc2ccncc2)[C@H](C)CN([C@@H](C)CO)S3(=O)=O)cc1`, the activity change, negative = inhibition was 21.6% (inactive).

On to `CC(C)NC(=O)N(C)C[C@@H]1OCCCC[C@H](C)Oc2ccc(NC(=O)Nc3cccc4ccccc34)cc2C(=O)N([C@H](C)CO)C[C@@H]1C`, for which the activity change, negative = inhibition was 60.5% (inactive).

As to `C[C@H](CO)N1C[C@H](C)[C@@H](CN(C)Cc2cccnc2)Oc2cc(C#CC3CCCCC3)ccc2S1(=O)=O`, the activity change, negative = inhibition was 27.1% (inactive).

As for `COc1ccccc1C#Cc1ccc([C@H]2[C@@H](CO)N(C(=O)C3CC3)[C@H]2C#N)cc1`, the activity change, negative = inhibition was 27.5% (inactive).

Take `COc1ccccc1-c1ccc2c(c1)O[C@H](CN(C)Cc1ccc3c(c1)OCO3)[C@H](C)CN([C@@H](C)CO)S2(=O)=O`: the activity change, negative = inhibition was 31.6% (inactive).

For the molecule `COc1ccc(-c2ccc([C@H]3[C@H](C#N)N(C(=O)C4CCCC4)[C@H]3CO)cc2)cc1`, the activity change, negative = inhibition is 5.91% (inactive).

`O=C(C[C@H]1C[C@H]2c3cc(NS(=O)(=O)c4ccc(F)cc4)ccc3O[C@H]2[C@@H](CO)O1)NCc1ccc(-c2ccccc2)cc1`: the activity change, negative = inhibition was 10.6% (inactive).

With `CO[C@@H]1CN(C)C(=O)c2cc(NC(=O)c3ccc(-c4ccccc4)cc3)ccc2OC[C@H](C)NC[C@H]1C`, the activity change, negative = inhibition is 9.68% (inactive).

Still in this test, the particulars now being: Clostridioides difficile clinical isolate growth, OD600, 24 h; at 135 µM (top of the series).
On to `C[C@@H]1CN([C@H](C)CO)C(=O)Cc2cc(N(C)C)ccc2O[C@@H]1CN(C)Cc1ccc(Oc2ccccc2)cc1`, for which the activity change, negative = inhibition was 23.7% (inactive).

Turning to `C[C@H](CO)N1C[C@H](C)[C@H](CN(C)Cc2ccc(F)cc2)Oc2ncc(-c3cc4ccccc4o3)cc2C1=O`, the activity change, negative = inhibition was 52.5% (inactive).

With `CO[C@H]1CN(C)C(=O)c2cc(NS(=O)(=O)c3ccc(-c4ccccc4)cc3)ccc2OC[C@H](C)NC[C@H]1C`, the activity change, negative = inhibition was 10.6% (inactive).

As for `C[C@@H]1CN([C@H](C)CO)C(=O)c2cc(NC(=O)Nc3cccc4ccccc34)ccc2O[C@@H](C)CCCCO[C@H]1CN(C)S(=O)(=O)c1cn(C)cn1`, the activity change, negative = inhibition is 33.1% (inactive).

Turning to `C[C@H](CO)N1C[C@H](C)[C@H](CN(C)Cc2ccc(-c3ccccc3)cc2)Oc2ccc(NC(=O)C3CC3)cc2CC1=O`, the activity change, negative = inhibition is 13.1% (inactive).

For the molecule `CNC[C@H]1Oc2c(NC(=O)Nc3ccc(F)cc3)cccc2C(=O)N([C@H](C)CO)C[C@@H]1C`, the activity change, negative = inhibition was 0.222% (inactive).

In the case of `Cc1ccc(S(=O)(=O)N[C@H]2CC[C@H](CCNS(=O)(=O)Cc3ccccc3)O[C@@H]2CO)cc1`, the activity change, negative = inhibition is -4.21% (inactive).

Regarding `CO[C@H]1CN(C)C(=O)c2cc(NC(=O)c3ccccc3)ccc2OC[C@H](C)NC[C@H]1C`, the activity change, negative = inhibition was -3.19% (inactive).

As for `C[C@@H]1CN([C@H](C)CO)C(=O)Cc2cc(NC(=O)c3ccncc3)ccc2O[C@@H]1CN(C)Cc1ccc(-c2ccccc2)cc1`, the activity change, negative = inhibition is 20.6% (inactive).

With `C[C@@H]1CN([C@@H](C)CO)C(=O)Cc2cc(NS(=O)(=O)c3ccccc3)ccc2O[C@@H]1CN(C)Cc1ccc(-c2ccccc2)cc1`, the activity change, negative = inhibition is 17.3% (inactive).
